Assay results as given in patent US12606566B2, “Substituted cyclopenta[4,5]pyrrolo[1,2-a]pyrazines as bruton's tyrosine kinase inhibitors” (Shanghai Synergy Pharmaceutical Sciences Co., Ltd., priority 2020, dated 2026).
pIC50: −log10 of the molar value.

Key:
[1] = tested on: tumour cells (A20 5E6 cells); experiment: Inhibitory effect on tumour cell proliferation (CCK8); assay type: cell-based; settings: CCK8 absorbance, read-out: Inhibitory effect of the compound on cell proliferation IC50
Method: This experiment was to determine the effect of the compound on cell proliferation.
To determine the inhibitory effect of the compound on the proliferation of tumour cells, tumour cells (A20 5E6 cells) were cultured to a certain amount and seeded into 96-well plates. […] The absorbance value was measured after the addition of CCK8 and 2 h incubation to determine the inhibitory effect of the compound on cell proliferation. The IC50 value of the compound was obtained by data fitted with Graphpad.

[2] = target: BTK kinase (Homo sapiens, UniProt Q06187); experiment: BTK kinase inhibitory activity, mobility shift method; assay type: biochemical; settings: compound co-incubated with the enzyme for 30 minutes
Method: The BTK kinase inhibitory activity of the compound was determined using a mobility shift method with the reaction system (kinase solution, ATP, kinase substrate2). The compound was co-incubated with the enzyme for 30 minutes, and then the conversion rate was read using the Caliper EZ reader. The compound inhibition rate was determined using the calculation formula and the data was fitted using Graphpad to derive the IC50 value for the compounds of this application.

Chain of BTK kinase (Q06187 whole entry): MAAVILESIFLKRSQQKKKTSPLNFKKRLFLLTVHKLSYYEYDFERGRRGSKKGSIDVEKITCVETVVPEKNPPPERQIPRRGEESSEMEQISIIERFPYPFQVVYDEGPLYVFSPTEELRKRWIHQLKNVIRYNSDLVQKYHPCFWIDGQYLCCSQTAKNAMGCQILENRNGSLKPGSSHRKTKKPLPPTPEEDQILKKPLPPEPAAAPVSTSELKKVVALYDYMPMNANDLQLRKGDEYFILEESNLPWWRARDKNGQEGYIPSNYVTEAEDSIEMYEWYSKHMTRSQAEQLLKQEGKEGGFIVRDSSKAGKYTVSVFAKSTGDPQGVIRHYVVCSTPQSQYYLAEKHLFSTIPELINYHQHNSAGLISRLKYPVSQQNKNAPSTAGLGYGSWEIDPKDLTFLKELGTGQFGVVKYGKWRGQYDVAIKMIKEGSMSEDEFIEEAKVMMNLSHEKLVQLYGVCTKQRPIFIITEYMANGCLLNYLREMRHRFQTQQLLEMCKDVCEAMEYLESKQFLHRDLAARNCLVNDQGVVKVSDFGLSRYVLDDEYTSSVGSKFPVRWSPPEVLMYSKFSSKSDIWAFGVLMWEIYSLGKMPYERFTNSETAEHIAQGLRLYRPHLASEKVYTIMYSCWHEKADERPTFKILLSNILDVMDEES

SMILES	pIC50 [1]	pIC50 [2]
Cn1cc(-c2ccnc(N3CCn4c5c(c(F)c4C3=O)CC(C)(C)C5)c2CO)cc(Nc2ccc(N3CCC4(CC3)CC(O)C4)cn2)c1=O [Example H13, 9-fluoro-2-(5-((5-(2-hydroxy-7-azaspiro[3.5]nonan-7-yl)pyridin-2-yl)amino)-3′-(hydroxymethyl)-1-methyl-6-oxo-1,6-dihydro-[3,4′-bipyridin]-2′-yl)-7,7-dimethyl-3,4,7,8-tetrahydro-2H-cyclopenta[4,5]pyrrolo[1,2-a]pyrazin-1(6H)-one]	7.72	9.74
Cn1cc(-c2ccnc(N3CCn4c5c(c(F)c4C3=O)CC(C)(C)C5)c2CO)cc(Nc2ccc(N3CCN(C4COC4)CC3)cc2)c1=O [Example H15, 9-fluoro-2-(3′-(hydroxymethyl)-1-methyl-5-((4-(4-(oxetan-3-yl)piperazin-1-yl)phenyl)amino)-6-oxo-1,6-dihydro-[3,4′-bipyridin]-2′-yl)-7,7-dimethyl-3,4,7,8-tetrahydro-2H-cyclopenta[4,5]pyrrolo[1,2-a]pyrazin-1(6H)-one]	7.64	9.17
Cn1cc(-c2ccnc(N3CCn4c5c(c(F)c4C3=O)CC(C)(C)C5)c2CO)cc(Nc2ccc(N3CCN(C4COC4)CC3)nc2)c1=O [Example H16, 9-fluoro-2-(3′-(hydroxymethyl)-1-methyl-5-((6-(4-(oxetan-3-yl)piperazin-1-yl)pyridin-3-yl)amino)-6-oxo-1,6-dihydro-[3,4′-bipyridin]-2′-yl)-7,7-dimethyl-3,4,7,8-tetrahydro-2H-cyclopenta[4,5]pyrrolo[1,2-a]pyrazin-1(6H)-one]	7.33	9.77

Other lines, results leading:

pIC50 [1]	pIC50 [2]	SMILES
7.89	9.59	Cn1cc(-c2ccnc(N3CCn4c5c(c(F)c4C3=O)CC(C)(C)C5)c2CO)cc(Nc2ccc(N3CCC4(CC3)COC4)cn2)c1=O [Example H11, 2-(5-((5-(2-oxa-7-azaspiro[3.5]nonan-7-yl)pyridin-2-yl)amino)-3′-(hydroxymethyl)-1-methyl-6-oxo-1,6-dihydro-[3,4′-bipyridin]-2′-yl)-9-fluoro-7,7-dimethyl-3,4,7,8-tetrahydro-2H-cyclopenta[4,5]pyrrolo[1,2-a]pyrazin-1(6H)-one]
7.89	9.31	CN1CC2(CCN(c3ccc(Nc4cc(-c5ccnc(N6CCn7c8c(c(F)c7C6=O)CC(C)(C)C8)c5CO)cn(C)c4=O)nc3)CC2)C1 [Example H12, 9-fluoro-2-(3′-(hydroxymethyl)-1-methyl-5-((5-(2-methyl-2,7-diazaspiro[3.5]nonan-7-yl)pyridin-2-yl)amino)-6-oxo-1,6-dihydro-[3,4′-bipyridin]-2′-yl)-7,7-dimethyl-3,4,7,8-tetrahydro-2H-cyclopenta[4,5]pyrrolo[1,2-a]pyrazin-1(6H)-one]
7.33	9.57	CN1CCN(c2ccc(Nc3cc(-c4ccnc(N5CCn6c7c(c(F)c6C5=O)CC(C)(C)C7)c4CO)cn(C)c3=O)nc2)CC1 [Example H14, 9-fluoro-2-(3′-(hydroxymethyl)-1-methyl-5-((5-(4-methylpiperazin-1-yl)pyridin-2-yl)amino)-6-oxo-1,6-dihydro-[3,4′-bipyridin]-2′-yl)-7,7-dimethyl-3,4,7,8-tetrahydro-2H-cyclopenta[4,5]pyrrolo[1,2-a]pyrazin-1(6H)-one]
